# Laboratory results taken from US10316323B2, “Microorganisms engineered to use unconventional sources of nitrogen” (priority 2013, dated 2019).
# System: cyanamide
# Assay: Utilization of cyanamide in rich YPD medium by S. cerevisiae strains
# Type: cell-based
# Conditions: 10 mM cyanamide in YPD medium
# Protocol: Optical density of NS100 and NS101 grown in rich YPD medium with 100 μg/mL hydgromycin and with and without 10 mM cyanamide. NS100 and NS101 were grown overnight in YNB medium, and inoculated at 3.33% v/v. […] Data are averages of 3 replicate wells in a 96 well plate; 150 μL per well. 30° C., YPD medium or YPD medium with 10 mM cyanamide. Inoculation was with 5 μL of culture pregrown for 24 hrs in the YNB medium with urea as nitrogen source.
compound,measurement,value
N#CN [cyanamide],effect of cyanamide on microbial growth,act as a deterrent for microbial growth
